This is an account of results in patent US20180148418A1, “AMIDO-SUBSTITUTED CYCLOHEXANE DERIVATIVES” (Bayer Pharma Aktiengesellschaft, priority 2015, published 2018).

Test [1] has as its system HEK293 cells cotransfected with the FOP control vector. Kind of test: HEK293 FOP assay (control reporter with non-functional TCF elements). Format: cell-based. The conditions noted are these: Homo sapiens, 16 hours. The method, boiled down: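 Compound series from 50 μM down to 15 nM, prediluted in DMSO then 50-fold into CAFTY buffer (pH 7.4, 2 mM Ca2+, 0.01% BSA), tested alongside TOP cells on a Geneticin-selected HEK293 FOP line whose TCF elements are replaced by a random sequence; recombinant human Wnt-3a applied at 2500-5 ng/ml.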

Test [2] has as its target T1, TNKS1 (Homo sapiens, UniProt O95271).
T1 construct: purchased BPS Bioscience, San Diego, USA 80579 (TNKS1 Histone Ribosylation Assay Kit)
T1 sequence (O95271 1-1327): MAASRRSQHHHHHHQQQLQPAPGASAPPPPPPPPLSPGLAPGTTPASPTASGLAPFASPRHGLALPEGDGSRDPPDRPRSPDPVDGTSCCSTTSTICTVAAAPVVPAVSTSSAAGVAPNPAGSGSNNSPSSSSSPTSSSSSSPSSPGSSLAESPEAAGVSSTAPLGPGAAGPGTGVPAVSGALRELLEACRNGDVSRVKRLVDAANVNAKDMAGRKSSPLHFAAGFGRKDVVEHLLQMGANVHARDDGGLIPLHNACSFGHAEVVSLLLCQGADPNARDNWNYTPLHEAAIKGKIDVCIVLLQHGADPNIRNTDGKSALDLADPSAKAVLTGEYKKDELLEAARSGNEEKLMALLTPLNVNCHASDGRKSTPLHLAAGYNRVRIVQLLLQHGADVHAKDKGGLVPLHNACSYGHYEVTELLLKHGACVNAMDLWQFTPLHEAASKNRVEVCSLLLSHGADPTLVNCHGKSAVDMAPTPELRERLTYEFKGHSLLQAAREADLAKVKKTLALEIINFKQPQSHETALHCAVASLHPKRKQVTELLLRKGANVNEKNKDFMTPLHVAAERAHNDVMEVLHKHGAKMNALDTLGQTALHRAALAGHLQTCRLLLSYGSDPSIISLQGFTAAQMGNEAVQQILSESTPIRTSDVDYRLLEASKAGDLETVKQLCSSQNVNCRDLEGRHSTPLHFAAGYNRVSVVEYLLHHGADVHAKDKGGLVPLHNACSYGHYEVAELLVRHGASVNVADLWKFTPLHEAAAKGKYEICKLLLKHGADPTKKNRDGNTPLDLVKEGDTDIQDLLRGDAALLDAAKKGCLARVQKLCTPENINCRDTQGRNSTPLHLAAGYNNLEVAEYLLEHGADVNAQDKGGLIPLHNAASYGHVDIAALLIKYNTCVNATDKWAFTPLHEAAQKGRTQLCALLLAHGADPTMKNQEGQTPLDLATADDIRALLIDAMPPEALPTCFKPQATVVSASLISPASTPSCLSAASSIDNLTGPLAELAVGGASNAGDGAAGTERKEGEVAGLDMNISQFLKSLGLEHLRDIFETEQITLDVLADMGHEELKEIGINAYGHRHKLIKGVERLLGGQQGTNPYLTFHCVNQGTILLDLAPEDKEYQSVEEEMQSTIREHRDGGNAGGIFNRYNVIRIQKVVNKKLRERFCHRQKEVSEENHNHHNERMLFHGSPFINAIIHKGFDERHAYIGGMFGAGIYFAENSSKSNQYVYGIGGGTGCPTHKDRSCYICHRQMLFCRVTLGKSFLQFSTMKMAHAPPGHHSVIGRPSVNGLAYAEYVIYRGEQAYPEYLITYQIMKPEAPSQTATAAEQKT
Kind of test: TNKS1 Assay B (auto-parsylation, [3H]-NAD+ SPA). Format: biochemical. As to conditions: 6 nM TNKS1, auto-parsylation, over night at room temperature. The method, then: The potency of selected compounds according to the invention was assessed applying a modified in vitro inhibition assay. Here, the TNKS1 catalyzed NAD^+-dependent ribosylation of the enzyme itself (auto-parsylation) was detected using [^3H]-NAD^+ as substrate and applying the scintillation proximity assay (SPA) method to detect tritium-labeled, parsylated TNKS1. The intensity of the readout signal is proportional to the incorporated [^3H]-NAD^+. Inhibition of TNKS1 leads to a decreased incorporation of [^3H]-NAD^+ and consequently to a lower readout signal intensity. The concentration of a test compound which inhibits the enzyme activity by 50% (corresponds to half of the normed readout signal intensity) is reported as IC50.
Protocol Auto-Parsylation Assay
The assay was conducted in a 96 well MTP format with the identical TNKS1 enzyme sample and NAD^+ sample as in the histone ribosylation assay with the following modifications: TNKS1 enzyme sample was diluted with a modified assay buffer (50 mM MES pH 7.0, 1 mM DTT, 0.01% Triton X-100) to a final concentration of 6 nM TNKS1 and 10×NAD^+ solution was diluted with the modified assay buffer (s. above) to a final 0.445×NAD^+ solution doped with 100 Bq/μl [^3H]-NAD^+[Catalog #NET443H050UC, Perkin Elmer, Waltham, Mass., USA]. Substrate solution (10 μl) was incubated with different test compound concentrations (2.5 ul in 10% DMSO in modified assay buffer) or control (2.5 ul 10% DMSO in modified assay buffer only) and enzyme (10 μl) over night at room temperature. Incorporated tritium was measured after addition of 50 μl SPA beads (1 mg/ml) [Catalog #RPNQ0095 20 mg/ml, Perkin Elmer, Waltham, Mass., USA; diluted 1:10 with Dulbecco's phosphate buffered saline, PBS Catalog #D8537, Sigma-Aldrich, Steinheim, Germany] and detection of the photon emission with a beta count plate reader [Wallac MicroBeta®, Perkin Elmer, Waltham, Mass., USA].

With `COC(C)(C)CNC(=O)c1nc[nH]c1C(=O)N[C@H]1CC[C@H](C(=O)Nc2cnccc2Cl)CC1` [Example 98, N^5-{trans-4-[(4-chloropyridin-3-yl)carbamoyl]cyclohexyl}-N^4-(2-methoxy-2-methylpropyl)-1H-imidazole-4,5-dicarboxamide], the IC50 in test [1] was not below 50000 nM; in test [2] it was 54 nM.

Turning to `COCC(C)NC(=O)c1nc[nH]c1C(=O)N[C@H]1CC[C@H](C(=O)Nc2cnccc2Cl)CC1` (stereo partly drawn) [Example 99, N^5-{trans-4-[(4-chloropyridin-3-yl)carbamoyl]cyclohexyl}-N^4-(1-methoxypropan-2-yl)-1H-imidazole-4,5-dicarboxamide], the 50% inhibitory concentration (IC50) came to 20000 nM in test [1] and 68 nM in test [2].

Consider `Cc1cc(NC(=O)[C@H]2CC[C@H](NC(=O)c3[nH]cnc3C(=O)NCC(C)(C)O)CC2)c(Cl)cc1F` [Example 100, N^5-{trans-4-[(2-chloro-4-fluoro-5-methylphenyl)carbamoyl]cyclohexyl}-N^4-(2-hydroxy-2-methylpropyl)-1H-imidazole-4,5-dicarboxamide], for which the IC50 was found to be 39000 nM in test [1] and 180 nM in test [2].

With `COC(C)(C)CNC(=O)c1nc[nH]c1C(=O)N[C@H]1CC[C@H](C(=O)Nc2cc(C)c(F)cc2Cl)CC1` [Example 101, N^5-{trans-4-[(2-chloro-4-fluoro-5-methylphenyl)carbamoyl]cyclohexyl}-N^4-(2-methoxy-2-methylpropyl)-1H-imidazole-4,5-dicarboxamide], the IC50 in test [1] turned out to be 35000 nM; in test [2], 160 nM.

With `Cc1cc(C)n2ncc(C(=O)N[C@H]3CC[C@H](C(=O)Nc4ccncc4Cl)CC3)c2n1` [Example 102, N-{trans-4-[(3-chloropyridin-4-yl)carbamoyl]cyclohexyl}-5,7-dimethylpyrazolo[1,5-a]pyrimidine-3-carboxamide], the results for the IC50 in test [1] and in test [2] were not below 50000 nM and 330 nM, respectively.

For the molecule `O=C(N[C@H]1CC[C@H](C(=O)Nc2ccncc2Cl)CC1)c1cnc2cccnn12` [Example 103, N-{trans-4-[(3-chloropyridin-4-yl)carbamoyl]cyclohexyl}imidazo[1,2-b]pyridazine-3-carboxamide], the IC50 in test [1] is 27000 nM; in test [2], 520 nM.

On to `Cc1cnc2c(C(=O)N[C@H]3CC[C@H](C(=O)Nc4ccncc4Cl)CC3)cnn2c1` [Example 104, N-{trans-4-[(3-chloropyridin-4-yl)carbamoyl]cyclohexyl}-6-methyl pyrazolo[1,5-a]pyrimidine-3-carboxamide], for which the IC50 in test [1] is not below 50000 nM; in test [2], 63 nM.

Take `O=C(N[C@H]1CC[C@H](C(=O)Nc2ccncc2Cl)CC1)c1cnn2cccnc12` [Example 105, N-{trans-4-[(3-chloropyridin-4-yl)carbamoyl]cyclohexyl}pyrazolo[1,5-a]pyrimidine-3-carboxamide]: the IC50 in test [1] was not below 50000 nM; in test [2], 190 nM.

On to `CCOC(=O)c1cnc2c(C(=O)N[C@H]3CC[C@H](C(=O)Nc4ccc(F)cc4Cl)CC3)cnn2c1` [Example 106, ethyl 3-({trans-4-[(2-chloro-4-fluorophenyl)carbamoyl]cyclohexyl}carbamoyl)pyrazolo[1,5-a]pyrimidine-6-carboxylate], for which the IC50 in test [1] is not below 50000 nM; in test [2], 49 nM.

As to `O=C(N[C@H]1CC[C@H](C(=O)Nc2ccc(F)cc2Cl)CC1)c1cnn2ccc(N3CCOCC3)nc12` [Example 107, N-{trans-4-[(2-chloro-4-fluorophenyl)carbamoyl]cyclohexyl}-5-(morpholin-4-yl)pyrazolo[1,5-a]pyrimidine-3-carboxamide], the IC50 in test [1] is not below 50000 nM; in test [2] it was 120 nM.

Consider `O=C(N[C@H]1CC[C@H](C(=O)Nc2ccc(F)cc2Cl)CC1)c1cnn2ccc(N3CCCC3)nc12` [Example 108], for which the IC50 was not below 50000 nM in test [1] and 52 nM in test [2].

Regarding `CN1CCN(c2ccn3ncc(C(=O)N[C@H]4CC[C@H](C(=O)Nc5ccc(F)cc5Cl)CC4)c3n2)CC1` [Example 109], the IC50 in test [1] was not below 50000 nM; in test [2], 62 nM.

For the molecule `COCc1cc(C)n2ncc(C(=O)N[C@H]3CC[C@H](C(=O)Nc4ccc(F)cc4Cl)CC3)c2n1` [Example 110, N-{trans-4-[(2-chloro-4-fluorophenyl)carbamoyl]cyclohexyl}-5-(methoxymethyl)-7-methylpyrazolo[1,5-a]pyrimidine-3-carboxamide], the figures for the IC50 in test [1] and in test [2] were not below 50000 nM and 310 nM, respectively.

Take `COCc1cc(C)nc2c(C(=O)N[C@H]3CC[C@H](C(=O)Nc4ccc(F)cc4Cl)CC3)cnn12` [Example 111, N-{trans-4-[(2-chloro-4-fluorophenyl)carbamoyl]cyclohexyl}-7-(methoxymethyl)-5-methylpyrazolo[1,5-a]pyrimidine-3-carboxamide]: the IC50 was not below 50000 nM in test [1] and 520 nM in test [2].

Take `COCc1cc(C)n2ncc(C(=O)N[C@H]3CC[C@H](C(=O)Nc4c(F)cc(F)cc4Cl)CC3)c2n1` [Example 112, N-{trans-4-[(2-chloro-4,6-difluorophenyl)carbamoyl]cyclohexyl}-5-(methoxymethyl)-7-methylpyrazolo[1,5-a]pyrimidine-3-carboxamide]: the values for the IC50 in test [1] and in test [2] were not below 50000 nM and 150 nM, respectively.

As for `Cc1nc2c(C(=O)N[C@H]3CC[C@H](C(=O)Nc4ccc(F)cc4Cl)CC3)cnn2c2c1CCC2` [Example 113, N-{trans-4-[(2-chloro-4-fluorophenyl)carbamoyl]cyclohexyl}-5-methyl-7,8-dihydro-6H-cyclopenta[e]pyrazolo[1,5-a]pyrimidine-3-carboxamide], the concentration for half-maximal inhibition (IC50) in test [1] was not below 50000 nM; in test [2] it was 110 nM.

In the case of `CC(O)CNc1ccc2ncc(C(=O)N[C@H]3CC[C@H](C(=O)Nc4ccc(F)cc4Cl)CC3)n2n1` (stereo partly drawn) [Example 114, N-{trans-4-[(2-chloro-4-fluorophenyl)carbamoyl]cyclohexyl}-6-[(2-hydroxypropyl)amino]imidazo[1,2-b]pyridazine-3-carboxamide], the IC50 was not below 50000 nM in test [1] and 860 nM in test [2].

Turning to `CNC(=O)c1[nH]cnc1C(=O)NC12CCC(C(=O)Nc3ccc(F)cc3Cl)(CC1)CC2` [Example 115, N^4-{4-[(2-chloro-4-fluorophenyl)carbamoyl]bicyclo[2.2.2]oct-1-yl}-N^5-methyl-1H-imidazole-4,5-dicarboxamide], the figures for the IC50 in test [1] and in test [2] were not below 50000 nM and 160 nM, respectively.

Broadly, the IC50 is the concentration that gives 50% inhibition.
